Like-named read-outs stand apart in the source and are kept apart here.
Tests used:
[1] = biological target: T1, menin/MLL binding (biotinylated wild-type or mutated menin and MLL-AF9 fusion protein) (Homo sapiens, UniProt O00255); assay: Assay 1 (Binding Assay): AlphaLISA menin/MLL binding; settings: 5 nM biotinylated menin, MLL-AF9-FLAG lysate
T1 construct: biotinylated (1) wild-type menin or (2) mutated menin (described in Nature (2012) Vol. 482, pp. 542-548); fused on or other part: Biotin attached chemically (Sulfo-NHS-Biotin); no fused second protein is printed for menin
T1 sequence (O00255 1-459 limits assumed): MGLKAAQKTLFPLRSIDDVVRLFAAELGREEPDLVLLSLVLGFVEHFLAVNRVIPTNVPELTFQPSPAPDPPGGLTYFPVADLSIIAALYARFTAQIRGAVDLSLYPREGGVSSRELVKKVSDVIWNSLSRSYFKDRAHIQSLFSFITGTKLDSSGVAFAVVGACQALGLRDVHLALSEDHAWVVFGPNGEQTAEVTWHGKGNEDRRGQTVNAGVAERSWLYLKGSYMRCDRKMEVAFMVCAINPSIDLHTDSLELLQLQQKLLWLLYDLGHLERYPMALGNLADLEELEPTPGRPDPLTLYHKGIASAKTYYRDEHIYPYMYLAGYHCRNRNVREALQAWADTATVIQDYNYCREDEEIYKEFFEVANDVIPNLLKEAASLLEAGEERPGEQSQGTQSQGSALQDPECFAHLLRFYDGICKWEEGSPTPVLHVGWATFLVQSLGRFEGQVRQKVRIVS
Procedure, shortened: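 Biotinylated E. coli-expressed menin (wild-type or mutant), 5 nM, incubated 30 min RT with compound and HEK293 lysate of MLL1-1,396–AF9-FLAG in pH 7.4 Tris buffer, 5% DMSO, 1 mM DTT. Anti-FLAG acceptor and streptavidin donor beads added, 60 min RT, AlphaLISA signal read. IC50 from four-parameter fit of % inhibition.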

[2] = system: human acute monocytic leukemia cell line MV-4-11; assay: Assay 2 (Cell Proliferation Assay), ATP quantitation (CellTiter-Glo); assay type: cell-based; settings: MV-4-11 cells, read-out: Assay 2 (EC50, inhibition of cell proliferation)
Procedure, shortened: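 Cells (1.67×10^4/well, 10% FBS medium) incubated ±compound 72 h at 37 °C, 5% CO2; HL-60 served as toxicity control. ATP read by CellTiter-Glo luminescence; % inhibition scaled between DMSO and a potent menin inhibitor at ≥100×LD50.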

CC(C)N(C)C(=O)c1cc(F)ccc1-n1cc([C@H]2CC[C@H](N3CCC[C@H]3CO)CC2)c2ccncc21 [Example 96, 5-fluoro-2-(3-(trans-4-((S)-2-(hydroxymethyl)pyrrolidin-1-yl)cyclohexyl)-1H-pyrrolo[2,3-c]pyridin-1-yl)-N-isopropyl-N-methylbenzamide]
IC50 [1]: < 100 nM | EC50 ([2]; Homo sapiens, MV4-11, 72 h): 100 to 1000 nM

CC(C)N(C)C(=O)c1cc(F)ccc1-n1cc(C2CCCN(Cc3ccc4c(c3)[nH]c(=O)n4CCO)C2)c2ccncc21 (centres unmarked) [Example 44, 5-fluoro-2-(3-(1-((1-(2-hydroxyethyl)-2-oxo-2,3-dihydro-1H-benzo[d]imidazol-5-yl)methyl)piperidin-3-yl)-1H-pyrrolo[2,3-c]pyridin-1-yl)-N-isopropyl-N-methylbenzamide]
IC50 [1]: < 100 nM | EC50 ([2]; 72 h): < 100 nM

CC(C)N(C)C(=O)c1cc(F)ccc1-n1cc(C2CCCN(Cc3ccc4[nH]c(=O)[nH]c4c3)C2)c2ccncc21 (single isomer, unassigned) [Example 43A, 5-fluoro-N-isopropyl-N-methyl-2-(3-(1-((2-oxo-2,3-dihydro-1H-benzo[d]imidazol-5-yl)methyl)piperidin-3-yl)-1H-pyrrolo[2,3-c]pyridin-1-yl)benzamide]
IC50 [1]: < 100 nM | EC50 ([2]; Homo sapiens, MV4-11, 72 h): < 100 nM

CC(C)N(C)C(=O)c1cc(F)ccc1-n1cc(C2CCCN(Cc3ccc4c(c3)[nH]c(=O)n4CCO)C2)c2ccncc21 (single isomer, unassigned) [Example 44B, 5-fluoro-2-(3-(1-((1-(2-hydroxyethyl)-2-oxo-2,3-dihydro-1H-benzo[d]imidazol-5-yl)methyl)piperidin-3-yl)-1H-pyrrolo[2,3-c]pyridin-1-yl)-N-isopropyl-N-methylbenzamide]
IC50 [1]: < 100 nM | EC50 ([2]; Homo sapiens, MV4-11, 72 h): < 100 nM

CC(C)N(C)C(=O)c1cc(F)ccc1-n1cc(C2CCCN(Cc3ccccc3)C2)c2ccncc21 (centres unmarked) [Example 45, 2-(3-(1-benzylpiperidin-3-yl)-1H-pyrrolo[2,3-c]pyridin-1-yl)-5-fluoro-N-isopropyl-N-methylbenzamide]
IC50 [1]: < 100 nM | EC50 ([2]; Homo sapiens, MV4-11, 72 h): 100 to 1000 nM

CC(C)N(C)C(=O)c1cc(F)ccc1-n1cc(C2CCC(NCc3ccc4[nH]c(=O)[nH]c4c3)CC2)c2ccncc21 (single isomer, unassigned) [Example 60, 5-fluoro-N-isopropyl-N-methyl-2-(3-(4-(((2-oxo-2,3-dihydro-1H-benzo[d]imidazol-5-yl)methyl)amino)cyclohexyl)-1H-pyrrolo[2,3-c]pyridin-1-yl)benzamide]
IC50 [1]: < 100 nM | EC50 ([2]; 72 h): 100 to 1000 nM

CCN(C(=O)c1cc(F)ccc1-n1cc(C2CCCN(Cc3ccc4[nH]c(=O)[nH]c4c3)C2)c2ccncc21)C(C)C (centres unmarked) [Example 47, N-ethyl-5-fluoro-N-isopropyl-2-(3-(1-((2-oxo-2,3-dihydro-1H-benzo[d]imidazol-5-yl)methyl)piperidin-3-yl)-1H-pyrrolo[2,3-c]pyridin-1-yl)benzamide]
IC50 [1]: < 100 nM | EC50 ([2]; Homo sapiens, MV4-11, 72 h): < 100 nM

CC(C)N(C(=O)c1cc(F)ccc1-n1cc(C2CN(CC[C@H]3CC[C@H](NC(=O)OC(C)(C)C)CC3)C2)c2ccncc21)C(C)C [Example 136, tert-butyl ((1r,4r)-4-(2-(3-(1-(2-(diisopropylcarbamoyl)-4-fluorophenyl)-1H-pyrrolo[2,3-c]pyridin-3-yl)azetidin-1-yl)ethyl)cyclohexyl)carbamate]
IC50 [1]: < 100 nM | EC50 ([2]; Homo sapiens, MV4-11, 72 h): < 100 nM

CC(c1ccccc1)N1CCC(c2cn(-c3ccc(F)cc3C(=O)N(C)C(C)C)c3cnccc23)CC1 (centres unmarked) [Example 30, 5-fluoro-N-isopropyl-N-methyl-2-(3-(1-(1-phenylethyl)piperidin-4-yl)-1H-pyrrolo[2,3-c]pyridin-1-yl)benzamide]
IC50 [1]: < 100 nM | EC50 ([2]; Homo sapiens, MV4-11, 72 h): 100 to 1000 nM

CC(=O)N[C@H]1CC[C@H](CCN2CCC(c3cn(-c4ccc(F)cc4C(=O)N(C)C(C)C)c4cnccc34)CC2)CC1 [Example 18, 2-(3-(1-(2-(trans-4-acetamidocyclohexyl)ethyl)piperidin-4-yl)-1H-pyrrolo[2,3-c]pyridin-1-yl)-5-fluoro-N-isopropyl-N-methylbenzamide]
IC50 [1]: < 100 nM | EC50 ([2]; Homo sapiens, MV4-11, 72 h): 100 to 1000 nM

CCN(C(=O)c1cc(F)ccc1-n1cc(C2CCCN(Cc3ccc4c(c3)[nH]c(=O)n4CCO)C2)c2ccncc21)C(C)C (centres unmarked) [Example 49, N-ethyl-5-fluoro-2-(3-(1-((1-(2-hydroxyethyl)-2-oxo-2,3-dihydro-1H-benzo[d]imidazol-5-yl)methyl)piperidin-3-yl)-1H-pyrrolo[2,3-c]pyridin-1-yl)-N-isopropylbenzamide]
IC50 [1]: < 100 nM | EC50 ([2]; Homo sapiens, MV4-11, 72 h): < 100 nM

CC(C)N(C)C(=O)c1cc(F)ccc1-n1cc(C2CCC(NCC3CCC(NS(C)(=O)=O)CC3)CC2)c2ccncc21 (single isomer, unassigned) [Example 62, 5-fluoro-N-isopropyl-N-methyl-2-(3-(4-(((4-(methylsulfonamido)cyclohexyl)methyl)amino)cyclohexyl)-1H-pyrrolo[2,3-c]pyridin-1-yl)benzamide]
IC50 [1]: < 100 nM | EC50 ([2]; 72 h): ≥ 1000 nM

CC(C)N(C(=O)c1cc(F)ccc1-n1cc(C2CCN(Cc3ccc4oc(=O)[nH]c4c3)C2)c2ccncc21)C(C)C (centres unmarked) [Example 140, 5-fluoro-N,N-diisopropyl-2-(3-(1-((2-oxo-2,3-dihydrobenzo[d]oxazol-5-yl)methyl)pyrrolidin-3-yl)-1H-pyrrolo[2,3-c]pyridin-1-yl)benzamide]
IC50 [1]: < 100 nM | EC50 ([2]; Homo sapiens, MV4-11, 72 h): < 100 nM

CC(C)N(C(=O)c1cc(F)ccc1-n1cc(C2CCCN(Cc3ccc4[nH]c(=O)[nH]c4c3)C2)c2ccncc21)C(C)C (centres unmarked) [Example 84A, 5-fluoro-N,N-diisopropyl-2-(3-(1-((2-oxo-2,3-dihydro-1H-benzo[d]imidazol-5-yl)methyl)piperidin-3-yl)-1H-pyrrolo[2,3-c]pyridin-1-yl)benzamide]
IC50 [1]: < 100 nM | EC50 ([2]; Homo sapiens, MV4-11, 72 h): < 100 nM

CC(C)N(C)C(=O)c1cc(F)ccc1-n1cc(C2CCN(CC3CC(F)(F)C3)CC2)c2ccncc21 [Example 16, 2-(3-(1-((3,3-difluorocyclobutyl)methyl)piperidin-4-yl)-1H-pyrrolo[2,3-c]pyridin-1-l)-5-fluoro-N-isopropyl-N-methylbenzamide]
IC50 [1]: < 100 nM | EC50 ([2]; Homo sapiens, MV4-11, 72 h): 100 to 1000 nM

CCN(C(=O)c1cc(F)ccc1-n1cc(C2CCCN(Cc3ccc4[nH]c(=O)[nH]c4c3)C2)c2ccncc21)C(C)C (single isomer, unassigned) [Example 47A]
IC50 [1]: < 100 nM | EC50 ([2]; Homo sapiens, MV4-11, 72 h): < 100 nM

CC(C)N(C(=O)c1cc(F)ccc1-n1cc(C2CCCN(C[C@H]3CC[C@H](NS(C)(=O)=O)CC3)C2)c2ccncc21)C(C)C (some centres unmarked) [Example 87, 5-fluoro-N,N-diisopropyl-2-(3-(1-(((1r,4r)-4-(methylsulfonamido)cyclohexyl)methyl)piperidin-3-yl)-1H-pyrrolo[2,3-c]pyridin-1-yl)benzamide]
IC50 [1]: < 100 nM | EC50 ([2]; Homo sapiens, MV4-11, 72 h): < 100 nM

CC(C)N(C(=O)c1cc(F)ccc1-n1cc(C2CCN(Cc3ccccc3)CC2)c2ccncc21)C(C)C [Example 33, 2-(3-(1-benzylpiperidin-4-yl)-1H-pyrrolo[2,3-c]pyridin-1-yl)-5-fluoro-N,N-diisopropylbenzamide]
IC50 [1]: < 100 nM | EC50 ([2]; Homo sapiens, MV4-11, 72 h): < 100 nM

CC(C)N(C)C(=O)c1cc(F)ccc1-n1cc(C2CCC(N(C)C)CC2)c2ccncc21 (single isomer, unassigned) [Example 54, 2-(3-(4-(dimethylamino)cyclohexyl)-1H-pyrrolo[2,3-c]pyridin-1-yl)-5-fluoro-N-isopropyl-N-methylbenzamide]
IC50 [1]: < 100 nM | EC50 ([2]; Homo sapiens, MV4-11, 72 h): ≥ 1000 nM

— patent publication US10899758B2, “Inhibitors of the menin-MLL interaction” (Vitae Pharmaceuticals, LLC, priority 2016, dated 2021)
